# Tests used:
# [1] = target: hSTING (Homo sapiens, UniProt Q86WV6); conditions: Conlon et al.; cited from earlier work
# [2] = human clinical trials; cited from earlier work
# [3] = system: variant STING alleles; test: UV crosslinking binding assay of variant STING alleles to 32P-c-di-GMP; parameters: species or system mouse and human; conditions: lysates of transfected 293T cells, FIG. 3B
# Procedure: FIG. 1, panels A-F show the variable responsiveness of human STING variants to cyclic-di-nucleotides maps to arginine 232. (Panel A) THP-1 cells were transduced with vectors encoding an shRNA targeting STING or a control shRNA. Cells were then stimulated with cyclic-di-GMP (cdG), dsDNA, cyclic-di-AMP (cdA), poly-inosine:cytosine (pI:C), or Sendai Virus, and induction of human interferon-β mRNA was assessed by quantitative reverse transcriptase PCR. (Panel B) Western blotting confirmed that knockdown of STING was effective. (Panel C) HEK293T cells were transfected with the indicated amounts of various mouse (m) or human (h) STING expression plasmid and then stimulated 6 h later by transfection with synthetic cdG (5 μM). […] STING activation was assessed by use of a co-transfected IFN-luciferase reporter construct. […] IFN induction was measured by qRT-PCR. ND, not detected. […] Binding was quantified by autoradiography. […]
# (Panel A) 293T cells were transfected with the indicated alleles of mouse (m)STING or human (h)STING and were then stimulated with c-di-GMP (cdG). STING activity was detected by the induction of a co-transfected IFN-luciferase reporter construct and expressed as fold-induction over luciferase activity of unstimulated cells. (Panel B) Lysates of transfected 293T cells were UV crosslinked in the presence of α32P-c-di-GMP, resolved by SDS-PAGE, and then analyzed by autoradiography. […]
# hSTING, sequence (Q86WV6 whole entry): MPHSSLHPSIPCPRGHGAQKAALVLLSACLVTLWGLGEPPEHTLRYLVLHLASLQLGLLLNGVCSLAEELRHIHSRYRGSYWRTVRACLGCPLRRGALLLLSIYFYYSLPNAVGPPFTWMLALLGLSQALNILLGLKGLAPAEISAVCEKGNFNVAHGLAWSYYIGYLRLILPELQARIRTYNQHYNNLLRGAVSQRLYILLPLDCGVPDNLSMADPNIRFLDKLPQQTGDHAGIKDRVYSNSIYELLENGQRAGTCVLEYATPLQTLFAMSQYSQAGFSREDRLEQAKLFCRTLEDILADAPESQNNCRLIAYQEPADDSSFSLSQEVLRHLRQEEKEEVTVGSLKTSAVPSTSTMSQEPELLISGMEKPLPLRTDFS
SMILES,stimulation of hSTING [1],efficacy in humans [2],binding to variant STING alleles [3]
Cc1ccc2c(=O)c3cccc(CC(=O)O)c3oc2c1C [DMXAA],unable to stimulate,not found to be efficacious,
Nc1nc2c(ncn2[C@@H]2O[C@@H]3COP(=O)(O)O[C@H]4[C@@H](O)[C@H](n5cnc6c(=O)[nH]c(N)nc65)O[C@@H]4COP(=O)(O)O[C@H]3[C@H]2O)c(=O)[nH]1 [cyclic-di-GMP],,,bound
